Active and inactive are the calls of the source. A value given as a limit tells only on which side of the number the result lay.

The values that follow come from ChEMBL document CHEMBL1201862, “PubChem BioAssay data set” (2004).

One experiment concerns the target NADPH oxidase 1 (Homo sapiens, UniProt Q9Y5S8). Nature of the experiment: Late-stage luminescence-based cell-based dose response assay to identify inhibitors of NADPH oxidase 1 (NOX1): Synthesized analogs 2. Type of experiment: functional.
The test system of experiment [1] is Vero. Nature of the experiment: host cell cytotoxicity of antiviral hits, dose response, cytotoxicity control for West Nile virus antiviral project, secondary assay (AID 1650). Type of experiment: functional. The settings on record: Chlorocebus sabaeus.
Experiment [2] concerns the target SWI/SNF-related matrix-associated actin-dependent regulator of chromatin subfamily A member 2 (Homo sapiens, UniProt P51531). Nature of the experiment: Luminescence-based cell-based high throughput dose response assay to identify activators of the function of SWI/SNF related, matrix associated, actin dependent regulator of chromatin, subfamily a, member 2 (SMARCA2, BRM). Type of experiment: functional.

Experiment [3] relates to Vero. Description: cells. The settings on record: Chlorocebus sabaeus. Type of experiment: functional.
A short description of experiment [4]: Counterscreen for activators of the function of SWI/SNF related, matrix associated, actin dependent regulator of chromatin, subfamily a, member 2 (SMARCA2, BRM): Luminescence-based cell-based high throughput dose response assay to identify non-selective compounds using the VP16 reporter assay. The class given is functional. (In general: The purpose of a counterscreen is to sort out artefacts and off-target activity.)

For experiment [5], the system named is Vero. Description: cytotoxicity of synthesized analogs in Vero cells, SAR follow-up, cytotoxicity control for West Nile virus antiviral project, cell-based, set II (AID 2402). The class given is functional. The settings on record: Chlorocebus sabaeus.
The target in experiment [6] is T1, Bcl-2-related protein A1 (Mus musculus, UniProt Q07440).
T1 sequence (Q07440 whole entry): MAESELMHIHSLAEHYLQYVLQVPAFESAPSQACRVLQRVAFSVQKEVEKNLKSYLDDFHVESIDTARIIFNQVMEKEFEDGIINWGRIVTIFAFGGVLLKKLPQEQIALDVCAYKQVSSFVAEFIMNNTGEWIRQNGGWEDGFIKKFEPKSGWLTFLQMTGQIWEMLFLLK
Nature of the experiment: Bfl-1 binding inhibitors, SAR follow-up, biochemical, fluorescence polarization (AID 1070). (Polarisation of emitted light reports the rotation of a fluorescent probe.)

The target in experiment [7] is T1, Bcl-2-related protein A1. Nature of the experiment: Bfl-1 inhibitors blocking BH3 peptide binding, confirmation, biochemical, TR-FRET, mouse Bfl-1 (AID 621). (In general: In TR-FRET formats the signal depends on donor and acceptor labels being close together.)
For experiment [8], the target named is Glyceraldehyde-3-phosphate dehydrogenase (Homo sapiens, UniProt P04406).
Glyceraldehyde-3-phosphate dehydrogenase, sequence (P04406 whole entry): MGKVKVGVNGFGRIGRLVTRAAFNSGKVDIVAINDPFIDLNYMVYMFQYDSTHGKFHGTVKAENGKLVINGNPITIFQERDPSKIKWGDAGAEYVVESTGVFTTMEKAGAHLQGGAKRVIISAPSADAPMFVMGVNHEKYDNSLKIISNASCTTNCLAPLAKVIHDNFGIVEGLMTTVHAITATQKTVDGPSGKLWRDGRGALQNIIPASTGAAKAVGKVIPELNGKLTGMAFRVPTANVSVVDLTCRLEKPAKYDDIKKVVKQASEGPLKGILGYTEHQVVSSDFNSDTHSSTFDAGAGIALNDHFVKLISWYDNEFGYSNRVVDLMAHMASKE
For experiment [9], the target named is T2, Mannose-6-phosphate isomerase (Homo sapiens, UniProt P34949).
T2 sequence (P34949 whole entry): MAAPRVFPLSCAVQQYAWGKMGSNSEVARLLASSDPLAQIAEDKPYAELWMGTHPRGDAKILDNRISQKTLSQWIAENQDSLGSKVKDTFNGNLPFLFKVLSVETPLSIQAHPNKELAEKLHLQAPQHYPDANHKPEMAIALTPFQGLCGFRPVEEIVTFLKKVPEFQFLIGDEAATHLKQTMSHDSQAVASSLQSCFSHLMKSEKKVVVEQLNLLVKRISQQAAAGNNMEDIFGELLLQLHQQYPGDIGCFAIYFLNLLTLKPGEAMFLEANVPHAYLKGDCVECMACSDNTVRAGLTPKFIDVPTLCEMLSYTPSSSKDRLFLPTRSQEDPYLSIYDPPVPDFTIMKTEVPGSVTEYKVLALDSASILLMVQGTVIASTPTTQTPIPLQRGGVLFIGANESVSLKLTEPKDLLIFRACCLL
Nature of the experiment: human PMI inhibitors, high substrate, primary screen, biochemical, fluorescence intensity, high mannose 6-phosphate (AID 1220).

The target in experiment [10] is Induced myeloid leukemia cell differentiation protein Mcl-1 (Homo sapiens, UniProt Q07820). Nature of the experiment: Mcl-1/Noxa binding inhibitor potency, dose response, biochemical, TR-FRET (AID 1417). The class given is functional.
Induced myeloid leukemia cell differentiation protein Mcl-1, sequence (Q07820 whole entry): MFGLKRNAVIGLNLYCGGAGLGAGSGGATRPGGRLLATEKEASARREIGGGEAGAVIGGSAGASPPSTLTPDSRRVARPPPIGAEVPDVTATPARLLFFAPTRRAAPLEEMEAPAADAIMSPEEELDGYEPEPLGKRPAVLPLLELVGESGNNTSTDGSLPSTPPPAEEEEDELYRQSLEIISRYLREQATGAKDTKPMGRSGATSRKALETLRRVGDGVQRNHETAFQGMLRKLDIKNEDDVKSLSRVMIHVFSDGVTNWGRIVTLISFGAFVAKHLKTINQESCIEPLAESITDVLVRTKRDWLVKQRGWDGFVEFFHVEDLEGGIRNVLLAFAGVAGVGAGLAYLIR
Experiment [11] is described as follows: cytotoxicity toward NIH3T3 fibroblasts, dose response, counter-screen, cell-based, ATP luminescence, mouse fibroblasts (AID 2010).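 Further: cells exposed to compound for about 90 hours before reading.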 The class given is functional.
The subject of experiment [12] is Vero. Description: Vero cell cytotoxicity, cytotoxicity control for flavivirus capping enzyme inhibitors (AID 588742). The conditions noted are these: Chlorocebus sabaeus. The class given is functional.
Experiment [13] in a line: HeLa cell cytotoxicity, dose response, cytotoxicity control for MgcRacGAP inhibitor project (AID 624300). The class given is functional.
Experiment [14] addresses T2, Mannose-6-phosphate isomerase. Description: inhibitors of human PMI, primary screen, biochemical, fluorescence intensity, coupled assay (AID 1209).
The nature of experiment [15]: inhibitors of intracellular T. cruzi replication, confirmation, NIH3T3 host cells, beta-gal luminescence (AID 2044).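 Further: intracellular parasites grown in NIH/3T3 mouse fibroblasts as host cells; luminescent beta-galactosidase reporter signal from transgenic T. cruzi replicating inside host cells; inhibitors lower the luminescence signal.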 The class given is functional, cell-based.
The next experiment addresses Genome polyprotein (dengue virus type 2, UniProt P29990). Description: Dengue-2 NS5 methyltransferase inhibitors, primary screen, biochemical, confirmation dose response (AID 588689). The class given is functional.
The target of experiment [16] is Sphingosine 1-phosphate receptor 2 (Homo sapiens, UniProt O95136). Nature of the experiment: Dose Response Cell Based Assay for Agonists of the S1P2 Receptor. [Related pubchem assays: 729, 736, 843 ]. The class given is functional.
Sphingosine 1-phosphate receptor 2, sequence (O95136 whole entry): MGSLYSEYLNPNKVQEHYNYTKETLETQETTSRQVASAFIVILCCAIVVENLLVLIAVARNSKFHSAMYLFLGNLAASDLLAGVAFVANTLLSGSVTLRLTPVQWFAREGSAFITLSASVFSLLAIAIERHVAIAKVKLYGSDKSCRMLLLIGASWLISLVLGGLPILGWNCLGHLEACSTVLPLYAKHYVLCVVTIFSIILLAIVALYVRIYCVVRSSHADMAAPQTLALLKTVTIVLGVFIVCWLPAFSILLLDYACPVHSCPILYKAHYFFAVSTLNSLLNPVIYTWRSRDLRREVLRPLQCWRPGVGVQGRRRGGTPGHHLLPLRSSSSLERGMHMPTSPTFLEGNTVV
For another experiment, the target named is 14-3-3 protein gamma (Homo sapiens, UniProt P61981). Nature of the experiment: modulators of 14-3-3 gamma client binding – dose response (AID 711). Type of experiment: functional.
The target in experiment [17] is Voltage-dependent T-type calcium channel subunit alpha-1H (Homo sapiens, UniProt O95180). The class given is functional.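 Further: channel activity triggered by adding a high calcium stimulation buffer.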
The test system of the next experiment is Streptococcus. Nature of the experiment: Group A Streptococcus viability loss, dose response, counter-screen for streptokinase expression inhibitor project, luminescence, BacTiterGlo (AID 1915).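 Further: potency for reduction of bacterial viability or growth.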 The class given is functional, organism-based.
The target of another experiment is T3, Streptokinase A (Streptococcus pyogenes serotype M1, UniProt P10520).
T3 sequence (P10520 whole entry): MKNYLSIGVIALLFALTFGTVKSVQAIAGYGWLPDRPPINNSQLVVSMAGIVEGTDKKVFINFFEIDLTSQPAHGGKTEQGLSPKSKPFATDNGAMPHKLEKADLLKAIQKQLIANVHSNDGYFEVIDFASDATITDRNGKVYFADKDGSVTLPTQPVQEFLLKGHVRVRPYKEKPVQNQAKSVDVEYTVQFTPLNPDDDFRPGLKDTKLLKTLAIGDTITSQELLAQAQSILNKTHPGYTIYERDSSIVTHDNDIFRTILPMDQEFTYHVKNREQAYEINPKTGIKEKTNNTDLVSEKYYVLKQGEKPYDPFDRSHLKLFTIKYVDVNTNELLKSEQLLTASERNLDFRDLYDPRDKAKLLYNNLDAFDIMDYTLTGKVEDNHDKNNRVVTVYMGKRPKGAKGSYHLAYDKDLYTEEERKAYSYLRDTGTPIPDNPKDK
Nature of the experiment: S. pyogenes streptokinase expression inhibitors, potency, dose response, plasminogen activation absorbance, OD405 (AID 1914).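 Further: secreted streptokinase activity via plasminogen activation per viability signal from cell pellet.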 The class given is functional, Streptococcus pyogenes M1 GAS.

The next experiment has as its target Cytochrome P450 2C9 (Homo sapiens, UniProt P11712). The settings on record: Potency.
Experiment [18] in a line: Luminescence Cell-Based Dose Response HTS to Identify Inhibitors of 5'UTR Stem-Loop Driven Prion Protein mRNA Translation in H4 Neuroglioblastoma Cells. [Related pubchem assays: 1827 (Project Summary), 1813 (Primary HTS)]. Type of experiment: functional.
Experiment [19] addresses Dual specificity tyrosine-phosphorylation-regulated kinase 1A (Rattus norvegicus, UniProt Q63470). Type of experiment: biochemical, Homo sapiens.
Experiment [20] can be described thus: growth suppression of PTEN-null colon cells, dose response, cell-based, HCT116 PTEN knockout (AID 1047).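 Further: HCT116 colon tumor cells with PTEN knocked out; cells exposed to compound for 60 hours before readout; potency for loss of cell viability measured by luminescence.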 The class given is functional.
The test system of the next experiment is P388/ADR. Nature of the experiment: cells. The class given is functional. The settings on record: Mus musculus.
In a further experiment the target is Galanin receptor type 2 (Homo sapiens, UniProt O43603). Nature of the experiment: Dose Response cell-based high-throughput screening assay to identify agonists of galanin receptor 2 (GALR2). [Related pubchem assays: 864 ]. The class given is functional.
Galanin receptor type 2, sequence (O43603 whole entry): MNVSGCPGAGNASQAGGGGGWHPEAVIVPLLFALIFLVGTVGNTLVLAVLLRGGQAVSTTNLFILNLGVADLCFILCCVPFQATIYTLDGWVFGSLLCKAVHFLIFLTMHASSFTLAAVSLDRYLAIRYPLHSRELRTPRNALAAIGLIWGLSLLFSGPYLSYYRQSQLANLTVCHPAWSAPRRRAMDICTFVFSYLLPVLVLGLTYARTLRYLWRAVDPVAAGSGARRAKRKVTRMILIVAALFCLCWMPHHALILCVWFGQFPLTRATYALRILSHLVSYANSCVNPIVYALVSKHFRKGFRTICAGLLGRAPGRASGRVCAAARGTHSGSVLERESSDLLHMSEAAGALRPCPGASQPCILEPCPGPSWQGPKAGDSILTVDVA
The nature of experiment [21]: growth suppression of beta-catenin-knockout colon cells, dose response, cell-based, HCT116, human colon tumor (AID 1045).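 Further: HCT116 colon tumor cells with beta catenin knocked out; cells exposed to compound for 60 hours.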 Type of experiment: functional.
The nature of experiment [22]: cytotoxicity in KRAS-transformed pancreatic duct cells, primary screen, cell-based, fluorescence, HTS (AID 431).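 Further: cell line used: HPDE-C7K.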 Type of experiment: functional. The settings on record: Homo sapiens.
Experiment [23] has as its system Streptococcus sp. 'group A'. Description: growth inhibition of control SK(-) GAS strain, dose response, counter-screen for streptokinase expression inhibitor project, luminescence, kanamycin, BacTiterGlo, confirmation (AID 1900). The class given is functional, organism-based.
Experiment [24] is described as follows: cytotoxicity in HPDE-C7 cells, cell-based, fluorescence, HTS (AID 430). Type of experiment: functional. The conditions noted are these: Homo sapiens.
For another experiment, the system named is P388. Description: cells. The class given is functional. The conditions noted are these: Mus musculus.
A further experiment concerns INS1. Description: beta cell apoptosis inhibitors, cytokine rescue, dose response, luminescence, retest (AID 449756).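 Further: cell death triggered by IL-1 beta plus TNF-alpha plus IFN-gamma mixture; protective hits raise ATP signal compared with cytokine alone wells.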 Type of experiment: functional, cell-based. The conditions noted are these: Rattus norvegicus.
Another experiment has as its system SN12K1. Nature of the experiment: cells. The class given is functional. The settings on record: Homo sapiens.

Genome polyprotein, sequence (P29990 2492-3391 limits assumed): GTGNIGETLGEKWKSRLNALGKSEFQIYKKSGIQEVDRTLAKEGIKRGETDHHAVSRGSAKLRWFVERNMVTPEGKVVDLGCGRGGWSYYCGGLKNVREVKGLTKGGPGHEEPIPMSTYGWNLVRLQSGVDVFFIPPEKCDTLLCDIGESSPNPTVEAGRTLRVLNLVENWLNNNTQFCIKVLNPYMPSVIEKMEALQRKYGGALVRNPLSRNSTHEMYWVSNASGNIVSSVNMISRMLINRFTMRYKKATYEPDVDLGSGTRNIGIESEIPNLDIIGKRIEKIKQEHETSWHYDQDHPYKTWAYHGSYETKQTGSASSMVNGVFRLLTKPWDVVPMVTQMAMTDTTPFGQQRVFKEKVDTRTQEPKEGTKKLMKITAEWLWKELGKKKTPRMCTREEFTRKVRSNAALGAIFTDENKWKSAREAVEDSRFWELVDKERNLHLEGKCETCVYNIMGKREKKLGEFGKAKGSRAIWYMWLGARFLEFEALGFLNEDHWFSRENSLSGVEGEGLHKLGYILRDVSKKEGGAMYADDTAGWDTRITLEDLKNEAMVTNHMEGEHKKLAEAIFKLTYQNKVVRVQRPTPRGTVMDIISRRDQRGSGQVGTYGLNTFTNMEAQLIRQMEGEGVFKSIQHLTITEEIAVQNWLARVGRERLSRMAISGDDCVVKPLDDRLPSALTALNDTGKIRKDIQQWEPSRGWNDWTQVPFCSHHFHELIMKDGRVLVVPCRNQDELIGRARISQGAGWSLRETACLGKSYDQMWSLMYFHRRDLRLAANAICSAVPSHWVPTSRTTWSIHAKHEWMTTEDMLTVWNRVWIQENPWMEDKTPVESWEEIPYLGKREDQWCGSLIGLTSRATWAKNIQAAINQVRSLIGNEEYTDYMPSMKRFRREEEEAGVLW
NADPH oxidase 1, sequence (Q9Y5S8 whole entry): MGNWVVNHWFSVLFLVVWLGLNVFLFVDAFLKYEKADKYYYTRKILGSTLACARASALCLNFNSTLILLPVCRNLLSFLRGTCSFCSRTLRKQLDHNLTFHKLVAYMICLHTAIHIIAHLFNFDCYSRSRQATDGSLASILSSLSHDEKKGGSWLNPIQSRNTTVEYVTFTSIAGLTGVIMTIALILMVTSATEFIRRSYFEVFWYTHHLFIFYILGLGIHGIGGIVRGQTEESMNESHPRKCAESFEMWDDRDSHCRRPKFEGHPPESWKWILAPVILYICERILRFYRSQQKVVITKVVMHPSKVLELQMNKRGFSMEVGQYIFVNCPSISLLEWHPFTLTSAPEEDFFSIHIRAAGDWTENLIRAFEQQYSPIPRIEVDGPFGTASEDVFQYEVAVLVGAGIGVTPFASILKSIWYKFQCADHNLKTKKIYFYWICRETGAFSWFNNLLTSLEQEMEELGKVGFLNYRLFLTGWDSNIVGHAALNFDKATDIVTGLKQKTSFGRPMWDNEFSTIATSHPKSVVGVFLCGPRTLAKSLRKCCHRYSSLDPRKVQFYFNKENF
Cytochrome P450 2C9, sequence (P11712 whole entry): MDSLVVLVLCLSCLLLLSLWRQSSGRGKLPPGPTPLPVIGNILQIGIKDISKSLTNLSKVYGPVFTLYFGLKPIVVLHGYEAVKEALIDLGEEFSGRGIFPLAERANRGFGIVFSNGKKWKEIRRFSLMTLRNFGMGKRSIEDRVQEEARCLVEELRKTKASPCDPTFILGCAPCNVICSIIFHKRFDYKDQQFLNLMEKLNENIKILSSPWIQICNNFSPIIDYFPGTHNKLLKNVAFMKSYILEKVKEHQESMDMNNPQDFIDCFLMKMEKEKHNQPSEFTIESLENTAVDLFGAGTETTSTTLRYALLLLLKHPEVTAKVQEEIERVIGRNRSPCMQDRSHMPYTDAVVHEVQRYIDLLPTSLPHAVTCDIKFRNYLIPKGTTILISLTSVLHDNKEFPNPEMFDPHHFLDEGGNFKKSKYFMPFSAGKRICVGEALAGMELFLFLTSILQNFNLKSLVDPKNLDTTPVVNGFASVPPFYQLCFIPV
SWI/SNF-related matrix-associated actin-dependent regulator of chromatin subfamily A member 2, sequence (P51531 whole entry): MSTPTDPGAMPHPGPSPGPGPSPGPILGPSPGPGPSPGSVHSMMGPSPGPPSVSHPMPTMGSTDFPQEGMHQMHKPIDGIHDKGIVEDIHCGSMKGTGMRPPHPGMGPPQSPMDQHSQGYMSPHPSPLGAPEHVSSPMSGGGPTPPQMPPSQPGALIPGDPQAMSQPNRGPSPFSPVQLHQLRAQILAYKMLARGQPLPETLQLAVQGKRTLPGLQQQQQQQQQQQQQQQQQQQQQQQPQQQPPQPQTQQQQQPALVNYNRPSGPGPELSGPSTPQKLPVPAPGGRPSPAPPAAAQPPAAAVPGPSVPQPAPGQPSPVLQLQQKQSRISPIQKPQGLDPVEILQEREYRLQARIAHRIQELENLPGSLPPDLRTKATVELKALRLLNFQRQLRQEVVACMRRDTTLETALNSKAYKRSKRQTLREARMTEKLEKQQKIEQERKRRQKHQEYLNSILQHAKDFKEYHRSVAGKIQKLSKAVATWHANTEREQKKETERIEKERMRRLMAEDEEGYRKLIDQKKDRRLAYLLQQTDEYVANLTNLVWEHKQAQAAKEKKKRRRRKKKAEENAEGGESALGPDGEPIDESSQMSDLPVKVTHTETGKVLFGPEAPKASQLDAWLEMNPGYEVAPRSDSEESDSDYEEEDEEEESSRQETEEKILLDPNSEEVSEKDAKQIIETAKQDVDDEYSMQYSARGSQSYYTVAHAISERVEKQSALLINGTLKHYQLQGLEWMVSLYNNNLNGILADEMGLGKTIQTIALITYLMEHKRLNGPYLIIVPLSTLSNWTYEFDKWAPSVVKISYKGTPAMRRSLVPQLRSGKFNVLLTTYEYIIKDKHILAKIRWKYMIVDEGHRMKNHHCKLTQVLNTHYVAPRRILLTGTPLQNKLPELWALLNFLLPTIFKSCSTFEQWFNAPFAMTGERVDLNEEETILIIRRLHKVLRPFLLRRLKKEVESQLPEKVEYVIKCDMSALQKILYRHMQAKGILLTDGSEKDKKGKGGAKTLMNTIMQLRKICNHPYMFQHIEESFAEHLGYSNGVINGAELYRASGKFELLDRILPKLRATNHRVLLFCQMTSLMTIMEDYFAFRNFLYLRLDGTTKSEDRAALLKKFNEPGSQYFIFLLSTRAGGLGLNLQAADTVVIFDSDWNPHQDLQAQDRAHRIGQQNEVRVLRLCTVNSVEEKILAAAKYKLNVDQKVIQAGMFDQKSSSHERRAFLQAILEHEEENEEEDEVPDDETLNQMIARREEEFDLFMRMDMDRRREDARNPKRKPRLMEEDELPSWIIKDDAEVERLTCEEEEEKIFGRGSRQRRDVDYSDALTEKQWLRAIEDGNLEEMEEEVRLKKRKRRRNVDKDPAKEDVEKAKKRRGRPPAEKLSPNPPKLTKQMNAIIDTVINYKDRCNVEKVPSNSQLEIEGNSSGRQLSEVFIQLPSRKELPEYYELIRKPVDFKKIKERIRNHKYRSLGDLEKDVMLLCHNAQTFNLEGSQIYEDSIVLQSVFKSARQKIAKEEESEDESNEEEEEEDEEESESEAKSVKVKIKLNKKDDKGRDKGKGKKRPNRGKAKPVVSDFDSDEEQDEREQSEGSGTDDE

As for `C=CC(=O)Nc1ccc2c(c1)Sc1ccccc1N2C`, the half-inhibitory concentration (IC50) on NADPH oxidase 1 is 2.38 µM (active).
For the molecule `COCCNC(=O)/C(C#N)=C/C=C/c1ccccc1[N+](=O)[O-]`, the 50% cytotoxic concentration (CC50) in the experiment with Vero [1] was 13.4 µM (active); with Vero [3] it was 16 µM (active). The EC50 in [2] and in [4] was > 91.1 µM (inactive) each time.
Take `O=C(CSc1nc2cccc(F)c2c(=O)n1-c1ccccc1)Nc1ccc2c(c1)CCC2`: in the experiment with Vero [5], the CC50 is > 200 µM (active).
As to `O=C1C(Cl)=C(N2CCN(CCO)CC2)C(=O)N1c1cccc([N+](=O)[O-])c1`, the results for the 50% inhibitory concentration (IC50) (on Bcl-2-related protein A1 [6]; on Bcl-2-related protein A1 [7]; in experiment [8]) were 30.9 µM (active), 10.8 µM (active) and > 100 µM (not active), respectively.
Regarding `CCOc1c(Cl)cc(CNc2ccc(N3CCCC3)cc2)cc1OC`, the IC50 was 37.7 µM (active) in [9], 2.69 µM (active) in experiment [10], 3.93 µM (active) in experiment [14] and 93.2 µM (active) at Genome polyprotein. For the same molecule, the results for the EC50 in experiment [11] and in experiment [15] were > 60 µM (not active) and 4.98 µM (active), respectively. Further, the CC50 in the experiment with Vero [12] was 27.8 µM (active); in [13], 100 µM (active).
For `COCCNC(=O)CN1CCN(C(c2ccccc2)c2ccccc2)CC1`, the EC50 in experiment [16] is > 50 µM (not active).
Regarding `O=C(Cn1cc2c(n1)CCCC2)NCc1ccccn1`, the 50% inhibitory concentration (IC50) at 14-3-3 protein gamma was 25.6 µM (active).
Take `Cc1c2ccncc2c(C)c2c1[nH]c1ccccc12` [ELLIPTECINE]: the EC50 in [17] is 3.99 µM (active); in the experiment with Streptococcus, 7.7 µM (active); on Streptokinase A, > 150 µM (not active); in experiment [18], > 120 µM (not active); in [20], 0.177 µM (active); on Galanin receptor type 2 it was > 55.7 µM (not active). For the same molecule, the concentration for a half-maximal effect (EC50) was 0.117 µM (active) in experiment [21], 2.4 µM (active) in [22], 2.25 µM (active) in [23] and 6.17 µM (active) in experiment [24]. For the same molecule, the half-maximal activity concentration (AC50) on Cytochrome P450 2C9 was 39.8 µM (inconclusive); in [19], 0.231 µM (active); in the experiment on INS1, 2.12 µM (active). Also, the 50% growth inhibitory concentration (GI50) was 0.824 µM (active) in the experiment on P388/ADR, 0.383 µM (active) with P388 and 0.56 µM (active) with SN12K1.

For orientation: IC50 means the concentration that gives 50% inhibition. One may read the CC50 as the concentration giving 50% cytotoxicity. As usually defined, the EC50 is the concentration at which the effect is half-maximal. Broadly, the AC50 is the concentration giving half of the maximal activity seen. As usually defined, the GI50 is the concentration giving 50% growth inhibition.
